Consider 18 compounds from ChEMBL document CHEMBL5291721, “A preclinical secondary pharmacology resource illuminates target-adverse drug reaction associations of marketed drugs” (Nat Commun, 2023).

Among the targets are Cannabinoid receptor 1 (Homo sapiens, UniProt P21554); Melanocortin receptor 4 (Homo sapiens, UniProt P32245); Mu-type opioid receptor (Homo sapiens, UniProt P35372).
Assay [1] deals with T1, Alpha-1A adrenergic receptor (Homo sapiens, UniProt P35348).
T1 sequence (P35348 whole entry): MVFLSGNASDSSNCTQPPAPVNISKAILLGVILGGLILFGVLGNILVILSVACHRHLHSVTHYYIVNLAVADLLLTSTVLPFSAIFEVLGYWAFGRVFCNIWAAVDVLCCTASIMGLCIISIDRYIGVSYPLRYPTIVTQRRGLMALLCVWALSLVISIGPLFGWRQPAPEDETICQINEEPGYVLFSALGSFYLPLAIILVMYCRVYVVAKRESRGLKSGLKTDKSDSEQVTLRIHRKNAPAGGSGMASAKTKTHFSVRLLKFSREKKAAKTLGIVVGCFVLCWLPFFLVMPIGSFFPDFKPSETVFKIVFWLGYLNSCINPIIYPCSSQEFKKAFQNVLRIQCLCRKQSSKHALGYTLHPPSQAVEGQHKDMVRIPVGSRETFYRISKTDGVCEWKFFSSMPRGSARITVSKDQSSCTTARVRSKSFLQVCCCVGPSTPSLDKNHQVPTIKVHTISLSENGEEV

For assay [2], the target named is T2, Alpha-2A adrenergic receptor (Homo sapiens, UniProt P08913).
T2 sequence (P08913 whole entry): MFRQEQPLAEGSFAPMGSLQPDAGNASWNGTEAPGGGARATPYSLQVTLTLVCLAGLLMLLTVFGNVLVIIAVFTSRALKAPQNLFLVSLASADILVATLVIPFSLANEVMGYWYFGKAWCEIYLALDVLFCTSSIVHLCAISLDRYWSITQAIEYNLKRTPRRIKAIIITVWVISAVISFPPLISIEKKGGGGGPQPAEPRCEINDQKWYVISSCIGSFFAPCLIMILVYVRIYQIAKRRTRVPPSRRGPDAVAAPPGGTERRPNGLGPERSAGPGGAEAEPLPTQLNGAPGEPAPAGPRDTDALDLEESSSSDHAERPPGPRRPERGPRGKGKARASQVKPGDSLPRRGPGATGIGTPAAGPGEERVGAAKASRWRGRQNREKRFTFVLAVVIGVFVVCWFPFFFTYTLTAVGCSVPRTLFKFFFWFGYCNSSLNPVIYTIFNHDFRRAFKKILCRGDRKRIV
The assay is classed as functional, cell-based.

For the next assay, the target named is T3, B2 bradykinin receptor (Homo sapiens, UniProt P30411).
T3 sequence (P30411 whole entry): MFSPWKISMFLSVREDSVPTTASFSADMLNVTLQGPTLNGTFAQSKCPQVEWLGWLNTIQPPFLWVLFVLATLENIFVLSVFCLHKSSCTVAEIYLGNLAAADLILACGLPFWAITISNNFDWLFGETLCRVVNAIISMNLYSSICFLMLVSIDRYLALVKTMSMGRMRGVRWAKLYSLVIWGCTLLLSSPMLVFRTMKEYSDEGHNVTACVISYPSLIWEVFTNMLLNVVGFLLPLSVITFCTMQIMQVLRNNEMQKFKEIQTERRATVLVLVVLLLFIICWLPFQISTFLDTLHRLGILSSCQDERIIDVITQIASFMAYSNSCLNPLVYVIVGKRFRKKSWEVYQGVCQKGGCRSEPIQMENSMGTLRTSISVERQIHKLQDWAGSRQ

In assay [3] the target is 5-hydroxytryptamine receptor 2B (Homo sapiens, UniProt P41595). Type of assay: functional, cell-based.
Chain of 5-hydroxytryptamine receptor 2B (P41595 whole entry): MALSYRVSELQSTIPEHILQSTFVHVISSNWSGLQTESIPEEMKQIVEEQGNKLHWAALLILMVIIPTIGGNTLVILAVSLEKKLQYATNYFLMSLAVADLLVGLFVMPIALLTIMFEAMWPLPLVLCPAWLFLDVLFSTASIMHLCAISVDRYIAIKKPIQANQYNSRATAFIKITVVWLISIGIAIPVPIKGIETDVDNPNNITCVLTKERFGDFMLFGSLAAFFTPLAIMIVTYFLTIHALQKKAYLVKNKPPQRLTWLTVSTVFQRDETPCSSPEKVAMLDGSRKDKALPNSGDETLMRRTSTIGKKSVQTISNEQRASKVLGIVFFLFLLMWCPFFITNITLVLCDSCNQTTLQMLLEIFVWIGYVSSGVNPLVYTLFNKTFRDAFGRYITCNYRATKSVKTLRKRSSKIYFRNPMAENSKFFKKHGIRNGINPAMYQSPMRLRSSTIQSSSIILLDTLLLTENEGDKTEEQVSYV
The target of assay [4] is Kappa-type opioid receptor (Homo sapiens, UniProt P41145).
Chain of Kappa-type opioid receptor (P41145 whole entry): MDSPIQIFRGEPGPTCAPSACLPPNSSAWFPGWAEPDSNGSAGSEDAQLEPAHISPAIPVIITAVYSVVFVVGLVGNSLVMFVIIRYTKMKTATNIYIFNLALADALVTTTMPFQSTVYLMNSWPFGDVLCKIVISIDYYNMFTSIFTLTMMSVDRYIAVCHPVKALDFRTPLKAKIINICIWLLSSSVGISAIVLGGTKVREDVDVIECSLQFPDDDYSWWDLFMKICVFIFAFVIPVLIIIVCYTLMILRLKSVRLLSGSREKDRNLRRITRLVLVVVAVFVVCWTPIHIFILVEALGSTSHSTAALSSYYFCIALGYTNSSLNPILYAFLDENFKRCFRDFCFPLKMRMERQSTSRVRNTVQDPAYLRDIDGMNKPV
The target in another assay is T4, Thromboxane A2 receptor (Homo sapiens, UniProt P21731).
T4 sequence (P21731 whole entry): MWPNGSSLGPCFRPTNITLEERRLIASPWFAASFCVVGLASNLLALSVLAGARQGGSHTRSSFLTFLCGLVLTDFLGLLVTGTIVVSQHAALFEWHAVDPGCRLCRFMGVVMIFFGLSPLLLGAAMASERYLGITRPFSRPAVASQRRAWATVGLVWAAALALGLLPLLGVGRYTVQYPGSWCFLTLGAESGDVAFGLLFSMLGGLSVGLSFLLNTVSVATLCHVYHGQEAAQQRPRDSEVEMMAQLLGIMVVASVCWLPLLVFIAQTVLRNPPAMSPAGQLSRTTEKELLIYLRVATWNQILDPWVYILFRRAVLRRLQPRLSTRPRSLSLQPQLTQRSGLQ

The target of assay [5] is T1, Alpha-1A adrenergic receptor. The assay is classed as functional, cell-based.
Assay [6] deals with Beta-2 adrenergic receptor (Homo sapiens, UniProt P07550). Type of assay: functional, cell-based.
Chain of Beta-2 adrenergic receptor (P07550 whole entry): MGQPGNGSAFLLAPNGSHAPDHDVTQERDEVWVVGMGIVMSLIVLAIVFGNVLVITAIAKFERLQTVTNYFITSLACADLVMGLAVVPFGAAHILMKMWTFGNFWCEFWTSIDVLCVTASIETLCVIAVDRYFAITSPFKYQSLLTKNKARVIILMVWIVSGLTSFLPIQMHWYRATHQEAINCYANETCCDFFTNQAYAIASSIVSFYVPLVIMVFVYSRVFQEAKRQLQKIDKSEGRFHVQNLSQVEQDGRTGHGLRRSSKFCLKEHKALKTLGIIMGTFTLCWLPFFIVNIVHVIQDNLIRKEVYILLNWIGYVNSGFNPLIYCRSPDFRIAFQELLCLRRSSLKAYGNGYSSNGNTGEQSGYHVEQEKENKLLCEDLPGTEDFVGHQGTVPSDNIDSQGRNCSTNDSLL

Structures are written as SMILES.
Further: assay procedure not described here.

Chain of Melanocortin receptor 4 (P32245 whole entry): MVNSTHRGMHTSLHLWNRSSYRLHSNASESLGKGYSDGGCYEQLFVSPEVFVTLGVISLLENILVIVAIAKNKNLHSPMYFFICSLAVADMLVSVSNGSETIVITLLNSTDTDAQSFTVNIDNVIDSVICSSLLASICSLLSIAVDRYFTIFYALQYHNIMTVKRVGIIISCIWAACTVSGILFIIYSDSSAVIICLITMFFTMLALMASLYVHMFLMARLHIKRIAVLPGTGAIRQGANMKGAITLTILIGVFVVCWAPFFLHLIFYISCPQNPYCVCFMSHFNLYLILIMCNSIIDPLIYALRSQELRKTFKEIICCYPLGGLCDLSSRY
Chain of Mu-type opioid receptor (P35372 whole entry): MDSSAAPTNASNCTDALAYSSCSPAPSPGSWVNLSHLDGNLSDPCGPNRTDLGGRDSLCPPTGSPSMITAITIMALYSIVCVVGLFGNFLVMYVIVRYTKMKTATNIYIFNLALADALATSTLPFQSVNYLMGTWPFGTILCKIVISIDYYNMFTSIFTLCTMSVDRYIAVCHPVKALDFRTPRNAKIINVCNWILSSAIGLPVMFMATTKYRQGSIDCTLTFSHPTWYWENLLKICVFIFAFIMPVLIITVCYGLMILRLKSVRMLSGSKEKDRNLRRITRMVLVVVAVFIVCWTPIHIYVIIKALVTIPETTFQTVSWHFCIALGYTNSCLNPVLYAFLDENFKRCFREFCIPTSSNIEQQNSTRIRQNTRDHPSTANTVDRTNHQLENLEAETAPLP
Chain of Cannabinoid receptor 1 (P21554 whole entry): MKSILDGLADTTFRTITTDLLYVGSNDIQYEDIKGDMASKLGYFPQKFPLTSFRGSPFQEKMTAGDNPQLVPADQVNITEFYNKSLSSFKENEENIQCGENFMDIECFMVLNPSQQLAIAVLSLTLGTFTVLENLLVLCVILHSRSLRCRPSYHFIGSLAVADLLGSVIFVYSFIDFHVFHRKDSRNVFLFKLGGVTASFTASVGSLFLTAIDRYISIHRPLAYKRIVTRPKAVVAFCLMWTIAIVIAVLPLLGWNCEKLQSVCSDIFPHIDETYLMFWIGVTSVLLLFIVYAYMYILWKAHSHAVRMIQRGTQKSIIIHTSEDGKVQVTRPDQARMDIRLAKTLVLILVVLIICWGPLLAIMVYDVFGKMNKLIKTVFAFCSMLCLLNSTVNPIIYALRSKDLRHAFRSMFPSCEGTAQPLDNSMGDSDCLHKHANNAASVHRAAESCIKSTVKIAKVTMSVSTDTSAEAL

A word on the AC50: it is the concentration at which the activity in the assay is half-maximal. A high value points to activity only at high concentration. For `CC=CC(=O)N(CC)c1ccccc1C`, the half-maximal activity concentration (AC50) (in assay [1]; in [2]; on B2 bradykinin receptor; at Cannabinoid receptor 1; in [3]; at Melanocortin receptor 4) was > 10 µM each time. The AC50 is > 10 µM in assay [4], > 10 µM at Thromboxane A2 receptor, > 30 µM on Mu-type opioid receptor and > 30 µM in assay [5].
As for `C=CCC1(CC(C)C)C(=O)NC(=O)NC1=O` [BUTALBITAL], the AC50 in assay [1] is > 30 µM; in assay [2], > 10 µM; on B2 bradykinin receptor, > 10 µM; at Cannabinoid receptor 1, > 10 µM; in assay [3], > 10 µM; on Melanocortin receptor 4 it was > 10 µM. Moreover, the AC50 in [4] was > 10 µM; at Thromboxane A2 receptor it was > 10 µM; on Mu-type opioid receptor it was > 30 µM; in assay [5], > 30 µM.
Take `CO/N=C(\C(=O)N[C@@H]1C(=O)N2C(C(=O)O)=C(CSc3nnnn3C)CS[C@H]12)c1csc(N)n1` [CEFMENOXIME]: the AC50 (in assay [2]; in [6]; on B2 bradykinin receptor; in assay [3]; in assay [5]) was > 30 µM in each case.
`CCN1CCN(C(=O)N[C@@H](C(=O)N[C@@H]2C(=O)N3C(C(=O)O)=C(CSc4nnnn4C)CS[C@H]23)c2ccc(O)cc2)C(=O)C1=O` [CEFOPERAZONE]: the AC50 is > 30 µM in assay [2]; > 30 µM in [6]; > 30 µM at B2 bradykinin receptor; > 30 µM in assay [3]; > 10 µM in [4].
As for `Cn1c(=O)c2c(ncn2CC2OCCO2)n(C)c1=O` [DOXOFYLLINE], the concentration at half-maximal activity (AC50) (in assay [2]; in [6]; on B2 bradykinin receptor; in assay [3]; in assay [4]; at Thromboxane A2 receptor) was > 30 µM in each case. The AC50 in assay [5] was > 30 µM.
Consider `CC(C)C(=O)c1c(C(C)C)nn2ccccc12` [IBUDILAST], for which the AC50 (in assay [2]; in assay [6]; at B2 bradykinin receptor; in assay [3]; in assay [4]; on Thromboxane A2 receptor) was > 30 µM in each case. Also, the AC50 in assay [5] is > 30 µM.
On to `CCC(C(=O)O)c1ccc(N2Cc3ccccc3C2=O)cc1` (stereo not drawn) [INDOBUFEN], for which the AC50 (in assay [2]; in assay [6]; at B2 bradykinin receptor; in assay [3]; in assay [4]; on Thromboxane A2 receptor) was > 30 µM throughout. Half-maximal activity in assay [5] (AC50) was put at 5.3 µM.
In the case of `CC(C)OC(=O)CCC/C=C\C[C@@H]1[C@@H](CC[C@@H](O)CCc2ccccc2)[C@H](O)C[C@@H]1O` [LATANOPROST], the half-maximal activity concentration (AC50) (in [2]; in assay [6]; on B2 bradykinin receptor; in assay [3]; in assay [4]) was > 30 µM in each case.
For `CCC1(CC)C(=O)NCC(C)C1=O` (stereo not drawn) [METHYPRYLON], the AC50 (in assay [2]; in [6]; at B2 bradykinin receptor; in assay [3]; in assay [4]) was > 30 µM each time.
Take `CCCC(C)C1(CC)C(=O)NC(=O)NC1=O` (stereo not drawn) [PENTOBARBITAL]: the AC50 in [1] is > 30 µM; in assay [2], > 10 µM; at B2 bradykinin receptor, > 10 µM; on Cannabinoid receptor 1, > 10 µM; in assay [3] it was > 10 µM; at Melanocortin receptor 4 it was > 10 µM. For the same compound, the AC50 was > 10 µM in [4], > 10 µM at Thromboxane A2 receptor, > 30 µM at Mu-type opioid receptor and > 30 µM in assay [5].
In the case of `O=C(O)C[C@H](O)C[C@H](O)/C=C/c1c(C2CC2)nc2ccccc2c1-c1ccc(F)cc1` [PITAVASTATIN], the AC50 (in [1]; in assay [2]; at B2 bradykinin receptor; at Cannabinoid receptor 1; in [3]; at Melanocortin receptor 4) was > 10 µM each time. Besides, the concentration at half-maximal activity (AC50) was > 10 µM in [4], > 10 µM at Thromboxane A2 receptor, > 30 µM at Mu-type opioid receptor and > 30 µM in assay [5].
Turning to `Clc1ccc(CCCOCCCN2CCCCC2)cc1` [PITOLISANT], the half-maximal activity concentration (AC50) (in assay [6]; on B2 bradykinin receptor; in assay [3]; in assay [4]; at Thromboxane A2 receptor; in assay [5]) was > 30 µM in each case.
As to `C#C[C@]1(O)CC[C@H]2[C@@H]3CCc4cc(OC5CCCC5)ccc4[C@H]3CC[C@@]21C` [QUINESTROL], the AC50 (in assay [1]; in [2]; on B2 bradykinin receptor; at Cannabinoid receptor 1; in [3]; at Melanocortin receptor 4) was > 10 µM each time. For the same compound, the AC50 was > 10 µM in [4], > 10 µM on Thromboxane A2 receptor and > 30 µM on Mu-type opioid receptor.
Regarding `C=CCC1(C(C)CC)C(=O)NC(=O)NC1=O` (stereo not drawn) [TALBUTAL], the concentration at half-maximal activity (AC50) (in [1]; in assay [2]; at B2 bradykinin receptor; at Cannabinoid receptor 1; in assay [3]; at Melanocortin receptor 4) was > 10 µM each time. Moreover, the AC50 in assay [4] was > 10 µM; on Thromboxane A2 receptor, > 10 µM; on Mu-type opioid receptor, > 30 µM.
Consider `CCN(CC)C(=O)N[C@H]1C[C@@H]2c3cccc4[nH]cc(c34)C[C@H]2N(C)C1` [TERGURIDE], for which the AC50 in assay [2] is > 30 µM; in assay [6], > 30 µM; at B2 bradykinin receptor, > 30 µM; in assay [3], > 30 µM; in assay [4] it was > 30 µM; in assay [5], 1.1 µM.
Consider `C[C@]12CC[C@H]3[C@@H](CCC4=CC(=O)CC[C@@]43C)[C@@H]1CC[C@@H]2O` [TESTOSTERONE], for which the AC50 in [1] is > 30 µM; in assay [2], > 10 µM; at B2 bradykinin receptor, > 10 µM; at Cannabinoid receptor 1 it was > 10 µM; in assay [3], > 10 µM; at Melanocortin receptor 4, > 10 µM. In addition, the AC50 in assay [4] was > 10 µM; on Thromboxane A2 receptor, > 10 µM; on Mu-type opioid receptor, > 30 µM.
Turning to `CN1C(=O)OC(C)(C)C1=O` [TRIMETHADIONE], the AC50 (in [1]; in [2]; at B2 bradykinin receptor; at Cannabinoid receptor 1; in assay [3]; on Melanocortin receptor 4) was > 10 µM each time. The AC50 in assay [4] is > 10 µM; on Thromboxane A2 receptor, > 10 µM; on Mu-type opioid receptor it was > 30 µM.
`C[C@H](CSC(=O)c1ccccc1)C(=O)N1C[C@@H](Sc2ccccc2)C[C@H]1C(=O)O` [ZOFENOPRIL]: the concentration at half-maximal activity (AC50) (in [1]; in assay [2]; at B2 bradykinin receptor; on Cannabinoid receptor 1; in assay [3]; at Melanocortin receptor 4) was > 10 µM in each case. The values for the AC50 (in assay [4]; on Thromboxane A2 receptor; on Mu-type opioid receptor) were > 10 µM, > 10 µM and > 30 µM, respectively.
